Bounds are passed on as bounds.

For data set [1], the system named is Trypanosoma cruzi. Description: Antitrypanosomal activity against Trypanosoma cruzi Y amastigote forms infected in human U2OS cells after 96 hrs by Draq5 staining-based high content analysis. The data set is classed as functional, cell-based.
Data set [2] deals with Trypanosoma cruzi. Description: Antitrypanosomal activity against Trypanosoma cruzi Y amastigote forms infected in human U2OS cells after 96 hrs by Draq5 staining-based high content analysis relative to control. The data set is classed as functional.
Data set [3] can be described thus: Selectivity index, ratio of CC50 for human U2OS cells to EC50 for Trypanosoma cruzi Y amastigote forms infected in human U2OS cells. The data set is classed as toxicity, cell-based. To be noted: read-out: Ratio CC50/EC50.
A short description of data set [4]: Cytotoxicity against human U2OS cells. The data set is classed as cell-based.
For data set [5], the system named is Trypanosoma brucei brucei. Description: Antitrypanosomal activity against Trypanosoma brucei brucei Lister 427 at 18 hrs post dose by resazurin-based assay. The data set is classed as functional. The note with it: Lister 427, 18 h.
Data set [6] in a line: Cytotoxicity against human HepG2 cells after 48 hrs by Cell Titer Glo assay. The data set is classed as cell-based. The note with it: read-out: pTC50 (converted).
Data set [7] relates to Trypanosoma brucei brucei. Description: Antitrypanosomal activity against Trypanosoma brucei brucei Lister 427 at 70 hrs post dose by resazurin-based assay. The data set is classed as functional.

The molecule `O=C(Cn1ccnc1[N+](=O)[O-])NCc1ccccc1` [BENZNIDAZOLE] gave a concentration for a half-maximal effect (EC50) in data set [1] of 3.6 µM. In addition, the Emax in data set [2] is 102%. Moreover, the selectivity ratio in data set [3] is above 235.
In data set [1], `CC(C)(O)c1cc2c(-c3ccsc3)nccc2[nH]1` came in with an EC50 of 106 µM. Besides, the CC50 in data set [4] turned out to be 199 µM. In data set [2], this molecule yielded an Emax of 72.8%. For the same molecule, in data set [3], the selectivity ratio was determined as 1.6.
Consider `COc1ccccc1-c1nccc2[nH]c(C(C)(C)O)cc12`, for which, in data set [1], the response was half-maximal at 53.9 µM (EC50). This molecule had an Emax in data set [2] of 56.6%. Moreover, the selectivity ratio in data set [3] is above 3.7.
In the case of `CC(C)(O)c1cc2c(-c3ccc(F)cc3)nccc2[nH]1`, in data set [1], the EC50 is 45.8 µM. Also, in data set [4], the CC50 came out at 93.6 µM. The molecule further displayed an Emax in data set [2] of 75.8%. Moreover, the selectivity ratio in data set [3] came to 2.
Taken in the same sequence, the figures for `CCSc1ccc(-c2nccc3[nH]c(C(C)(C)O)cc23)cc1` were 9.6 µM, 17.2 µM, 107% and 1.8.
As to `CC[C@@H]1COCCN1c1cc(-c2cc(OC)c3c(N)n[nH]c3c2)nc(N)n1`, in data set [5], the EC50 is at most 1 µM. Moreover, the CC50 at 48 h in data set [6] was 14.5 to 100 µM. In data set [7], this molecule came in with a pEC50 of 6.16 to 9.17.
In data set [1], `CC(C)(O)c1cc2c(Cl)nccc2[nH]1` came in with an EC50 of 70.8 µM. The same molecule displayed a CC50 in data set [4] of 15.5 µM. Besides, the Emax in data set [2] was 106%. Moreover, the selectivity ratio in data set [3] is 0.2.
Molecule `CN(C)Cc1ccc(-c2[nH]c3ncc(C#N)cc3c2-c2ccccc2)cc1` gave a concentration giving a half-maximal response (EC50) in data set [5] of at most 1 µM. For the same molecule, in data set [6], the CC50 at 48 h is 14.5 to 100 µM. Further, the pEC50 in data set [7] was in the range of 6.16 to 9.17.
Take `CC(C)(O)c1cc2c(-c3ccc(C(F)(F)F)cc3)nccc2[nH]1`: in data set [1], the EC50 is 40.9 µM. In addition, the CC50 in data set [4] was determined as 72.3 µM. The maximal response (Emax) in data set [2] was found to be 102%. In addition, the selectivity ratio in data set [3] stood at 1.5.
Taken in the same sequence, the figures for `CC(C)(O)c1cc2c(-c3ccccc3)nccc2[nH]1` were 6.5 µM, 22.2 µM, 106% and 3.4.
Turning to `CS(=O)(=O)Nc1ccc(-c2c(-c3cccnc3)oc3ncnc(N)c23)cc1`, the EC50 in data set [5] is at most 1 µM. Also, the CC50 at 48 h in data set [6] was 14.5 to 100 µM. The molecule further displayed a negative-log EC50 (pEC50) in data set [7] of 6.16 to 9.17.
The matching figures for `OCCn1c(CNCCCNc2nc3ccccc3[nH]2)cc2c(Cl)cc(Cl)cc21`: at most 1 µM, 14.5 to 100 µM and 6.16 to 9.17.
Consider `CC(C)(C)c1ccc(-c2nccc3[nH]c(C(C)(C)O)cc23)cc1`, for which the half-maximal effective concentration (EC50) in data set [1] worked out at 17 µM. Besides, the CC50 in data set [4] is 35.3 µM. For the same molecule, in data set [2], the Emax turned out to be 110%. The selectivity ratio in data set [3] was found to be 1.3.
Take `CC(C)(O)c1cc2c(-c3ccc(C#N)cc3)nccc2[nH]1`: the Emax in data set [2] is 30.6%.
As for `CC(C)(O)c1cc2c(-c3cc(C(F)(F)F)cc(C(F)(F)F)c3)nccc2[nH]1`, the midpoint of the response in data set [1], the EC50, lay at 24.3 µM. Further, the CC50 in data set [4] amounted to 59.8 µM. In data set [2], the maximal effect (Emax) was 72.2%. Also, the selectivity ratio in data set [3] stood at 2.5.
Consider `Cn1cc(-c2cnc3[nH]cc(-c4cccc(C#N)c4)c3c2)cn1`, for which the CC50 at 48 h in data set [6] was 14.5 to 100 µM.
`CC(C)(O)c1cc2c(-c3ccc(NC(=O)OCc4ccccc4)cc3)nccc2[nH]1`: the concentration giving a half-maximal response (EC50) in data set [1] was 4.5 µM. In data set [4], this molecule returned a CC50 of 5.5 µM. The same molecule gave a maximal effect (Emax) in data set [2] of 99.4%. For the same molecule, the selectivity ratio in data set [3] stood at 1.22.
`CC(C)(O)c1cc2c(-c3ccccc3CO)nccc2[nH]1` displayed an Emax in data set [2] of 30.1%.
`CC(C)=Cc1cccc2c1/C(=N/Nc1ccc(S(N)(=O)=O)cc1)C(=O)N2` [GW396574X] showed an EC50 in data set [5] of at most 1 µM. In addition, in data set [6], the CC50 at 48 h is 14.5 to 100 µM. The molecule further showed a pEC50 in data set [7] of 6.16 to 9.17.
In data set [1], `CC(=O)c1ccc(-c2nccc3[nH]c(C(C)(C)O)cc23)cc1` had a 50% effective concentration (EC50) of 137 µM. The molecule further showed a maximum response (Emax) in data set [2] of 60.9%. The selectivity ratio in data set [3] was above 1.4.
`CC(C)(O)c1cc2c(-c3ccc4ccccc4c3)nccc2[nH]1`: the half-maximal effective concentration (EC50) in data set [1] turned out to be 20.1 µM. In data set [4], this molecule registered a CC50 of 22.5 µM. In addition, the Emax in data set [2] came to 102%. Besides, the selectivity ratio in data set [3] amounted to 1.1.
On to `Cc1occc1-c1ncc(O[C@H](CN)c2ccccc2)cc1-c1c[nH]c2ncccc12`, for which the EC50 in data set [5] was at most 1 µM. In data set [6], the CC50 at 48 h was 14.5 to 100 µM. This molecule gave a pEC50 in data set [7] of 6.16 to 9.17.
In data set [1], `Cc1cccc(-c2nccc3[nH]c(C(C)(C)O)cc23)c1` yielded a half-maximal effective concentration (EC50) of 52.3 µM. Further, in data set [4], the CC50 worked out at 121 µM. Also, the Emax in data set [2] was found to be 101%. Also, the selectivity ratio in data set [3] is 1.7.
Turning to `CN(C)Cc1ccc(-c2cc3c(-c4cnn(C)c4)ccnc3[nH]2)cc1`, in data set [5], the EC50 was at most 1 µM. Also, the CC50 at 48 h in data set [6] is 14.5 to 100 µM. For the same molecule, the pEC50 in data set [7] is 6.16 to 9.17.
In turn, `Cc1ccc(-c2nccc3[nH]c(C(C)(C)O)cc23)cc1` registered a half-maximal effective concentration (EC50) in data set [1] of 34.6 µM. The molecule further gave a CC50 in data set [4] of 38.5 µM. The Emax in data set [2] amounted to 86%. For the same molecule, in data set [3], the selectivity ratio came to 1.1.
The matching figures for `CC(C)(O)c1cc2c(-c3ccc(-c4ccccc4)c(F)c3)nccc2[nH]1`: 3.8 µM, 9.1 µM, 75.7% and 2.4.
In data set [5], `O=C(Nc1ccc(-c2ccnc3[nH]ccc23)s1)C1(Cc2ccccc2)CCCNC1` (stereo not drawn) had an EC50 of at most 1 µM. Besides, the CC50 at 48 h in data set [6] is 14.5 to 100 µM. For the same molecule, the pEC50 in data set [7] lay within 6.16 to 9.17.

One may read the EC50 as the concentration giving half of the maximal effect. A lower EC50 goes with greater potency. Broadly, the Emax is the maximal effect, on the per cent scale that the assay sets. As usually defined, the pEC50 is the negative decadic logarithm of the EC50, by convention in mol/L.

Values taken from ChEMBL document CHEMBL4004845, “Synthesis and trypanocidal activity of a library of 4-substituted 2-(1H-pyrrolo[3,2-c]pyridin-2-yl)propan-2-ols” (Eur J Med Chem, 2017).
